Laboratory results taken from US20250313563A1, “GLYCOGEN SYNTHASE KINASE 3 INHIBITORS AND USES THEREOF” (The Broad Institute, Inc., priority 2022, published 2025).
Read-outs that look alike come from different tables or passages of the source.

Assays:
[1] = molecular target: GSK3α (GST-full length GSK3α) (Homo sapiens (Human), UniProt P49840); experiment: GSK3α TR-FRET kinase assay; assay type: biochemical
Outline: (§1)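 In this time-resolved FRET format, kinase reactions contained 200 nM biotinylated, S645-phosphorylated glycogen synthase 631-650 peptide and either isoform-specific ATP (2 μM GSK3b, 4 μM GSK3α) or 1 mM ATP. They were quenched with EDTA after 100 min at ambient temperature. Inhibition curves gave IC50 values.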

[2] = molecular target: GSK3b (GST-full length GSK3b) (Homo sapiens (Human), UniProt P49841); experiment: GSK3b TR-FRET kinase assay; assay type: biochemical
Chain of GSK3b (GST-full length GSK3b) (P49841 whole entry): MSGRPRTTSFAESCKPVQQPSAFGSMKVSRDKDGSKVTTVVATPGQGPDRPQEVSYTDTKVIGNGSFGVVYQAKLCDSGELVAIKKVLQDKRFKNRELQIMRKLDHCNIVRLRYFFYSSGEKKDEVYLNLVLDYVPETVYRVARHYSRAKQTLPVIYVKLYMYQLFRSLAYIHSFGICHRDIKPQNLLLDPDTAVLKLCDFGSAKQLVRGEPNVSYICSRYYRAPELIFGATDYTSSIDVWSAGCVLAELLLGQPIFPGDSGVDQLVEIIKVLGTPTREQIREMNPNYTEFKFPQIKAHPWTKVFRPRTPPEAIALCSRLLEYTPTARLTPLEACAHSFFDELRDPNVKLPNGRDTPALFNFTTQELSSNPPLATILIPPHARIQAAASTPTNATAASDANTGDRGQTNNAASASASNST
Outline: as §1

[3] = 1 nM GSK3α, 4 μM ATP, 30 minute preincubation, geometric mean, read-out: GSK3-A TR-FRET BIOCHEMICAL (TR-FRET), GMean, IC50
[4] = 1 nM GSK3b, 2 μM ATP, 30 minute preincubation, geometric mean, read-out: GSK3-B TR-FRET BIOCHEMICAL (TR-FRET), GMean, IC50
[5] = 1 nM GSK3α, 4 μM ATP, 30 minute preincubation, Table 16, read-out: GSK3-A TR-FRET BIOCHEMICAL (TR-FRET), IC50
[6] = 1 nM GSK3b, 2 μM ATP, 30 minute preincubation, Table 16, read-out: GSK3-B TR-FRET BIOCHEMICAL (TR-FRET), IC50
[7] = read-out: GSK3-A (TR-FRET 1 mM ATP), GMean, IC50, 1 mM ATP, geometric mean
[8] = read-out: GSK3-B (TR-FRET 1 mM ATP), GMean, IC50, 1 mM ATP, geometric mean
[9] = 1 nM GSK3α, 4 μM ATP, 30 minute preincubation, read-out: GSK3-A TR-FRET BIOCHEMICAL (TR-FRET), IC50
[10] = 1 nM GSK3b, 2 μM ATP, 30 minute preincubation, read-out: GSK3-B TR-FRET BIOCHEMICAL (TR-FRET), IC50
[11] = 1 nM GSK3α, 4 μM ATP, 30 minute preincubation, Table 16, read-out: GSK3-A TR-FRET BIOCHEMICAL (TR-FRET)
[12] = 1 nM GSK3b, 2 μM ATP, 30 minute preincubation, Table 16, read-out: GSK3-B TR-FRET BIOCHEMICAL (TR-FRET)

Chain of GSK3α (GST-full length GSK3α) (P49840 whole entry, canonical isoform): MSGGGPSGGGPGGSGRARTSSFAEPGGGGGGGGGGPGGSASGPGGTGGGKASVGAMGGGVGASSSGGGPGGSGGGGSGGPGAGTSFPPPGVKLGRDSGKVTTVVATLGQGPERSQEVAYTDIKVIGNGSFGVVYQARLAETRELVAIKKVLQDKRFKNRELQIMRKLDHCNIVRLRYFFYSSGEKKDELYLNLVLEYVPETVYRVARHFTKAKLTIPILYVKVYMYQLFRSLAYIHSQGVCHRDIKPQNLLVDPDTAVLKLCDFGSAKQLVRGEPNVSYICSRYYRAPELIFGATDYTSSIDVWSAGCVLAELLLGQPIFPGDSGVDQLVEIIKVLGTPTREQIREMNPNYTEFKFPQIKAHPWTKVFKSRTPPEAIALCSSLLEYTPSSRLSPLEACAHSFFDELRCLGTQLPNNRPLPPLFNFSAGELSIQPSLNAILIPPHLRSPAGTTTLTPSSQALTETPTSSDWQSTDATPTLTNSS

Row | SMILES | IC50 [1, 3] [nM] | IC50 [2, 4] [nM] | also measured
1 | CC[C@]1(c2ccccc2)C2=C(C[C@]3(CCOC3)CC2=O)Nc2n[nH]cc21 [Compound 816880] | > 5000 | > 5000 | 
2 | CC[C@@]1(c2ccccc2)C2=C(C[C@]3(CCOC3)CC2=O)Nc2n[nH]cc21 [Compound 816882] | > 5000 | > 5000 | 
3 | CCC1(c2cccc(N3CCOCC3)c2)C2=C(CC(C)(C)CC2=O)Nc2n[nH]c(C(F)(F)F)c21 (stereo not shown) [Compound 816886] | 1000 to 5000 | 1000 to 5000 | 
4 | CCC1(c2cccc(CN3CCCCC3)c2)C2=C(CC(C)(C)CC2=O)Nc2n[nH]cc21 (stereo not shown) [Compound 819560] | 1000 to 5000 | > 5000 | 
5 | CC1(C)CC(=O)C2=C(C1)Nc1n[nH]cc1C2(C)CCc1ccccc1 (stereo not shown) [Compound 819562] |  |  | IC50 [1, 5]: 1000 to 5000 nM; IC50 [2, 6]: > 5000 nM
6 | CCC1(CCc2ccccc2)C2=C(CC(C)(C)CC2=O)Nc2n[nH]cc21 (stereo not shown) [Compound 819563] |  |  | IC50 [1, 5]: 1000 to 5000 nM; IC50 [2, 6]: > 5000 nM
7 | CC[C@]1(c2ccccc2)C2=C(C[C@@](C)(C(F)(F)F)CC2=O)Nc2n[nH]cc21 [Compound 819570] | > 5000 | > 5000 | 
8 | CC[C@@]1(c2ccccc2)C2=C(C[C@@](C)(C(F)(F)F)CC2=O)Nc2n[nH]cc21 [Compound 819571] | > 5000 | > 5000 | 
9 | CC[C@]1(c2ccccc2)C2=C(CC3(CCC3)CC2=O)Nc2n[nH]cc21 [Compound 819572] | > 5000 | > 5000 | 
10 | CCC1(c2cccc(C(F)(F)F)c2)C2=C(CC(C)(C)N(C)C2=O)Nc2n[nH]cc21 (stereo not shown) [Compound 823130] |  |  | IC50 [1, 9]: ≤ 100 nM; IC50 [2, 10]: 100 to 1000 nM
11 | CCC1(c2cccc(-c3cnn(C)c3)c2)C2=C(CC(C)CC2=O)Nc2n[nH]cc21 (stereo not shown) [Compound 823726] | > 5000 | > 5000 | 
12 | CCC1(c2cccc(C(F)(F)F)c2)C2=C(CCN(C(C)C)C2=O)Nc2n[nH]cc21 (stereo not shown) [Compound 825755] |  |  | IC50 [1, 9]: ≤ 100 nM; IC50 [2, 10]: 100 to 1000 nM
13 | CC1(C)CC(=O)C2=C(C1)Nc1n[nH]cc1C21CCOCC1 [Compound 826648, 7′,7′-dimethyl-2,2′,3,5,6,7′,8′,9′-octahydrospiro[pyran-4,4′-pyrazolo[3,4-b]quinolin]-5′ (6′H)-one] |  |  | IC50 [1, 11]: 100 to 1000 nM; IC50 [2, 12]: 100 to 1000 nM
14 | CC(=O)N1CCC2(CC1)C1=C(CC(C)(C)CC1=O)Nc1n[nH]cc12 [Compound 826649] |  |  | IC50 [1, 11]: 100 to 1000 nM; IC50 [2, 12]: 1000 to 5000 nM
15 | CC1(C)CC(=O)C2=C(C1)Nc1n[nH]cc1C21CCCCC1 [Compound 826650] |  |  | IC50 [1, 11]: ≤ 100 nM; IC50 [2, 12]: ≤ 100 nM
16 | CC1(C)CC(=O)C2=C(C1)Nc1n[nH]cc1C21CCOC1 (stereo not shown) [Compound 826713] |  |  | IC50 [1, 11]: 100 to 1000 nM; IC50 [2, 12]: 100 to 1000 nM
17 | CN1CCC2(CC1)C1=C(CC(C)(C)CC1=O)Nc1n[nH]cc12 [Compound 826714] |  |  | IC50 [1, 5]: > 5000 nM; IC50 [2, 6]: > 5000 nM
18 | CCC1(c2cccc(S(C)(=O)=O)c2)C2=C(CC(C)(C)CC2=O)Nc2n[nH]cc21 (stereo not shown) [Compound 826718] |  |  | IC50 [1, 7]: ≤ 100 nM; IC50 [2, 8]: 100 to 1000 nM
19 | CC[C@]1(c2cccc(S(C)(=O)=O)c2)C2=C(CC(C)(C)CC2=O)Nc2n[nH]cc21 [Compound 826719] | 1000 to 5000 | > 5000 | 
20 | CC(=O)N1CCC2(C1)C1=C(CC(C)(C)CC1=O)Nc1n[nH]cc12 (stereo not shown) [Compound 826763] |  |  | IC50 [1, 5]: 100 to 1000 nM; IC50 [2, 6]: 1000 to 5000 nM
21 | CC1CCCC12C1=C(CC(C)(C)CC1=O)Nc1n[nH]cc12 (stereo not shown) [Compound 826765] |  |  | IC50 [1, 11]: 100 to 1000 nM; IC50 [2, 12]: 1000 to 5000 nM
22 | CC[C@]1(c2ccccc2)C2=C(CC(C)(C)[C@@H](F)C2=O)Nc2n[nH]cc21 [Compound 826766] | 100 to 1000 | 100 to 1000 | 
23 | CC[C@]1(c2ccccc2)C2=C(CC(C)(C)[C@H](F)C2=O)Nc2n[nH]cc21 [Compound 826767] | > 5000 | > 5000 | 
24 | CC[C@@]1(c2ccccc2)C2=C(CC(C)(C)[C@H](F)C2=O)Nc2n[nH]cc21 [Compound 826769] | > 5000 | > 5000 | 
25 | CCC1(c2cccc(C(F)(F)F)c2)C2=C(CC(C)(C)N(C)C2=O)Nc2n[nH]cc21 (stereo not shown) [Compound 826790] |  |  | IC50 [1, 9]: ≤ 100 nM; IC50 [1, 7]: 100 to 1000 nM; IC50 [2, 10]: ≤ 100 nM; IC50 [2, 8]: 1000 to 5000 nM
26 | CCC1(c2cccc(C(F)(F)F)c2)C2=C(CC(C)(C)N(C)C2=O)Nc2n[nH]cc21 (stereo not shown) [Compound 826791] |  |  | IC50 [1, 9]: 100 to 1000 nM; IC50 [2, 10]: 1000 to 5000 nM
27 | CCC1(c2cccc(Br)c2)C2=C(CC(C)CC2=O)Nc2n[nH]c(C(F)(F)F)c21 (stereo not shown) [Compound 828849] | 100 to 1000 | 100 to 1000 | 
28 | CCC1(c2ccccc2)C2=C(CCC(C)(C)C2=O)Nc2n[nH]cc21 (stereo not shown) [Compound 835310] | 100 to 1000 | 1000 to 5000 | 
29 | CCC1(c2cccc(Br)c2)C2=C(CC(C)(C)C(F)C2=O)Nc2n[nH]cc21 (stereo not shown) [Compound 835312] | > 5000 | > 5000 | 
30 | CC[C@]1(c2cccc(Br)c2)C2=C(CC(C)(C)[C@@H](F)C2=O)Nc2n[nH]cc21 [Compound 835313] | > 5000 | > 5000 | 

Second part, led by results:

Row | IC50 [1, 3] [nM] | IC50 [2, 4] [nM] | SMILES | also measured
31 | 100 to 1000 | 1000 to 5000 | CC[C@]1(c2ccccc2)C2=C(C[C@@]3(CCOC3)CC2=O)Nc2n[nH]cc21 [Compound 816881] | 
32 | 100 to 1000 | 1000 to 5000 | CC[C@@]1(c2ccccc2)C2=C(C[C@@]3(CCOC3)CC2=O)Nc2n[nH]cc21 [Compound 816884] | 
33 | ≤ 100 | ≤ 100 | CCC1(c2cccc(S(C)(=O)=O)c2)C2=C(CC(C)(C)CC2=O)Nc2n[nH]cc21 (stereo not shown) [Compound 819561] | 
34 | ≤ 100 | ≤ 100 | CCC1(c2cccc(C(F)F)c2)C2=C(CC(C)(C)CC2=O)Nc2n[nH]cc21 (stereo not shown) [Compound 819564] | 
35 | 100 to 1000 | 100 to 1000 | CCC1(c2cccc(Br)c2)C2=C(CC(C(F)(F)F)CC2=O)Nc2n[nH]cc21 (stereo not shown) [Compound 819565] | 
36 | 100 to 1000 | 100 to 1000 | CC[C@@]1(c2ccccc2)C2=C(C[C@](C)(C(F)(F)F)CC2=O)Nc2n[nH]cc21 [Compound 819568] | 
37 | 100 to 1000 | 1000 to 5000 | CC[C@]1(c2ccccc2)C2=C(C[C@](C)(C(F)(F)F)CC2=O)Nc2n[nH]cc21 [Compound 819569] | 
38 | ≤ 100 | 100 to 1000 | CC[C@@]1(c2ccccc2)C2=C(CC3(CCC3)CC2=O)Nc2n[nH]cc21 [Compound 819573] | 
39 | ≤ 100 | ≤ 100 | CC[C@]1(c2cccc(N3CCCC3)c2)C2=C(CC(C)(C)CC2=O)Nc2n[nH]c(C(F)(F)F)c21 [Compound 819574] | IC50 [1, 7]: ≤ 100 nM; IC50 [2, 8]: ≤ 100 nM
40 | 100 to 1000 | ≤ 100 | CCC1(c2cccc(N3CCCC3)c2)C2=C(CC(C)(C)CC2=O)Nc2n[nH]c(C(F)(F)F)c21 (stereo not shown) [Compound 819575] | IC50 [1, 7]: ≤ 100 nM; IC50 [2, 8]: ≤ 100 nM
41 | 100 to 1000 | 1000 to 5000 | CCC1(c2cccc(-c3cnn(C)c3)c2)C2=C(CC(C)(C)CC2=O)Nc2n[nH]cc21 (stereo not shown) [Compound 819576] | 
42 | ≤ 100 | 100 to 1000 | CCC1(c2cccc(-c3cnn(C)c3)c2)C2=C(CC(C)(C)CC2=O)Nc2n[nH]cc21 (stereo not shown) [Compound 819577] | IC50 [1, 7]: 100 to 1000 nM; IC50 [2, 8]: > 5000 nM
43 | ≤ 100 | 100 to 1000 | CCC1(c2cccc(C3CCOCC3)c2)C2=C(CC(C)(C)CC2=O)Nc2n[nH]cc21 (stereo not shown) [Compound 819638] | IC50 [1, 7]: 100 to 1000 nM; IC50 [2, 8]: > 5000 nM
44 | ≤ 100 | 100 to 1000 | CCC1(c2cccc(-c3cnn(C)c3)c2)C2=C(CC(C)CC2=O)Nc2n[nH]cc21 (stereo not shown) [Compound 823720] | 
45 | ≤ 100 | 100 to 1000 | CCC1(c2cccc(-c3cnn(C)c3)c2)C2=C(CC(C)CC2=O)Nc2n[nH]cc21 (stereo not shown) [Compound 823721] | IC50 [1, 7]: 100 to 1000 nM; IC50 [2, 8]: > 5000 nM
46 | ≤ 100 | ≤ 100 | CCC1(c2cccc(Br)c2)C2=C(CC(C)CC2=O)Nc2n[nH]c(C(F)(F)F)c21 (stereo not shown) [Compound 826715] | 
47 | 100 to 1000 | > 5000 | CCC1(c2cccc(C(F)F)c2)C2=C(CC(C)(C)CC2=O)Nc2n[nH]cc21 (stereo not shown) [Compound 826716] | 
48 | ≤ 100 | ≤ 100 | CC[C@@]1(c2cccc(C(F)F)c2)C2=C(CC(C)(C)CC2=O)Nc2n[nH]cc21 [Compound 826717] | IC50 [1, 7]: 100 to 1000 nM; IC50 [2, 8]: 1000 to 5000 nM
49 | ≤ 100 | 100 to 1000 | CC[C@@]1(c2ccccc2)C2=C(CC(C)(C)[C@@H](F)C2=O)Nc2n[nH]cc21 [Compound 826768] | 
50 | ≤ 100 | 100 to 1000 | CCC1(c2cccc(Br)c2)C2=C(CC(C)(C)C(F)C2=O)Nc2n[nH]cc21 (stereo not shown) [Compound 835314] | 
51 | ≤ 100 | ≤ 100 | CCC1(c2cccc(Br)c2)C2=C(CC(C)(C)C(F)C2=O)Nc2n[nH]cc21 (stereo not shown) [Compound 835315] | IC50 [1, 7]: 100 to 1000 nM; IC50 [2, 8]: 1000 to 5000 nM
